Test results as given in patent US20130216482A1, “METHODS AND COMPOSITIONS FOR NON-INVASIVE, DYNAMIC IMAGING OF INTESTINAL MOTILITY” (The Board of Regents of the University of Texas System, priority 2012, published 2013).

Assay: In vivo dynamic NIR fluorescence imaging of ICG distribution, clearance and GI transit
Parameters: species or system mice
Procedure: Mice were chosen because part of the study involved opening the peritoneal cavity and removing organs to provide detailed information about the method and its abilities. Therefore, the subjects of the study were Female C57BL6 mice (4-6 wk old; Charles River, Wilmington, Mass., USA) that were housed and maintained in a pathogen-free mouse facility accredited by the American Association for Laboratory Animal Care. All studies were performed in accordance with the guidelines of the Institutional Animal Care and Use Committee. Animal experiments were approved by University of Texas Health Science Center Institutional Animal Care and Usage Committee in accordance with NIH guidelines.
In order to carry out in vivo dynamic NIR imaging of GI Motility, the mice were anesthetized with isofluorane and maintained at 37° C. on a warming pad. A volume of 10 μl and 50 ul of 645 μM of IC-Green (Akorn, Inc. Buffalo Grove, Ill., USA) dissolved in mixture of distilled water and 0.9% Sodium Chloride in a volume ratio of 1:9 was injected intradermally and intravenously, respectively.
For intravenous injection of ICG, a catheter was placed in the tail vein of anesthetized mice to facilitate the subsequent delivery of the fluorescent dye. Dynamic fluorescence images were acquired for a period of approximately 6 min immediately before and up to 24 hrs after intravenous injection using a custom-built NIR fluorescence imaging system, the basics of which are presented in FIG. 6 and has been described elsewhere (for example U.S. Pat. Nos. 8,084,753; 7,875,260; 7,865,230; 7,599,732; 7,328,059; 7,268,873; 7,187,441; 7,054,002; 6,930,777; 6,771,370; 5,818,583; 5,865,754 and Kwon and Sevick-Muraca, Lymphat Res Biol 5, 219-231, 2007; Kwon and Sevick-Muraca, J Immunol Methods 360, 167-172, 2010). Anesthetized mice were uniformly illuminated by 785 nm light from a laser diode and the emitted fluorescence was collected using an Electron Multiplying Charge Coupled Device (EMCCD) camera with a holographic filter and a bandpass filter placed prior to a 28 mm lens. Image acquisition with the camera exposure time of 100 ms for fluorescence and white light imaging was accomplished by V++ software. The abdominal skin temperature was monitored for temperature changes during dynamic fluorescence imaging using an infrared thermometer but no temperature changes were observed. Because it was possible that the non-invasive imaging of the intestines may not distinguish the GI lumen from blood and lymphatic vessels, necropsy of the mouse with exposure of the abdomen was performed at 1 hr post injection (p.i.) and the GI tract was removed and laid out on a black paper for intravital imaging.
The data obtained were analyzed with a custom Matlab (The MathWorks, Inc., Natick, Mass., USA) program and ImageJ (National Institutes of Health, Bethesda, Md., USA). Fixed regions of interest (ROIs) from equivalent areas were selected along the length of the fluorescent intestine. An average fluorescent intensity within each ROI was plotted as a function of imaging time and/or length of the intestine. A three-dimensional plot of fluorescent intensity as a function of time and distance was generated and used as a spatio-temporal map to assess the propagation velocity and the frequency of the propagation along the intestine. No corrections were made for respiratory movements in the construction of the three-dimensional spatio-temporal maps. The packet of fluorescent contents is represented by the peak in fluorescence intensity which propagates along the intestine with time. Two ROIs were identified, from which the distance and time information was extracted to measure the propagation velocity. In this study, peristalsis was defined as aboral propagation of contraction waves along the intestine.

[1] = 1 hr post injection, abdomen exposed (FIG. 4: intravenous)

For CC1(C)C(/C=C/C=C/C=C/C=C2\N(CCCCS(=O)(=O)O)c3ccc4ccccc4c3C2(C)C)=[N+](CCCCS(=O)(=O)[O-])c2ccc3ccccc3c21 [ICG, indocyanine green], the “fluorescence in the cecum” value [1] was “weak”, the “fluorescence throughout the small intestine” value [1] was “strong but non-uniform” and the “source of fluorescent signal in dissected small intestine” value (GI tract removed 1 hr post injection, contents removed) was “does not arise from the intestinal tissues, but rather from its contents”. For the same molecule, the “earliest detection of fluorescent signal in the cecum” value (after intradermal injection, also observed at 24 hr post injection) was 1 h, the “time fluorescent vessels could be visualized” value (after intravenous administration) was “up to 2 min” and the “distribution of the ICG throughout the mouse” value (following intravenous injection) was “within seconds”. The “fluorescent signal in the liver” value (injected intravenously, 1 h post injection) was “greatly reduced”, the “fluorescence in the liver (and gallbladder)” value (intradermal administration, 1 h post injection) was “still high” and the “fluorescent signal arising from the stomach” value (post injection, all times) was “absent at all times”.
